Reference: patent US10286034B2, “Uses of bremelanotide in therapy for female sexual dysfunction” (Palatin Technologies, Inc., priority 2012, dated 2019)

How the values were obtained:
[1] = tested on: premenopausal females with FSAD and/or HSDD; experiment: Example 1: placebo-controlled at-home trial of subcutaneous bremelanotide, efficacy (SSEs, FSFI, FSDS-DAO); type: in vivo, human
Experimental: A multi-centered, placebo-controlled, randomized, parallel group trial with fixed dose levels and designed to identify appropriate doses of bremelanotide administered by subcutaneous injection in premenopausal females with FSAD and/or HSDD, under the conditions of home use, was conducted. […] Subjects who continued to qualify for the trial then received 2 single in-clinic doses of randomized treatment (double-blind; approximately one week apart), followed by 12 weeks of double-blind treatment at home (subjects self-administered treatment as needed). Subjects were randomized (1:1:1:1) to one of four study treatment groups (placebo or doses with 0.75, 1.25, or 1.75 mg net weight bremelanotide). Randomization occurred immediately prior to the first in-clinic dose of double-blind treatment. Study drug and placebo was provided as pre-filled syringes in 0.3 mL volume, with subjects instructed on self-administration into the anterior thigh or abdomen. Enrolled subjects were premenopausal women who met the diagnostic criteria for […], or mixed […], utilizing a diagnostic screening guide including categorization of the sexual dysfunction as both acquired (vs. lifelong) and generalized (vs. situational). Subjects enrolled had previously been sexually “functional;” that is, experienced sexual arousal during sexual activity and/or a normal level of desire at some point in the past for a period of at least 2 years. […] Enrolled subjects were provided with an electronic diary system (eDiary) with instructions to complete an FSEP-R questionnaire with each sexual encounter. At selected in-clinic visits, subjects completed other assessment questionnaires, including […]-DAO, […] and WITS-9. In addition, various vital sign measures were conducted and blood and urine samples collected at selected in-clinic visits. […] The measurement period was defined as the number of events during the last four weeks of treatment minus the number of events during the baseline period, with outcomes reported for pooled results of women taking the two highest bremelanotide dose levels versus placebo. […] The FSFI is a 19-item questionnaire which provides for an additional measurement of changes over a longer recall period. • FSFI total score improvement (mean change of 3.55 vs. 1.88, p=0.0017) • Reduced associated distress related to sexual dysfunction, as measured by the Female Sexual Distress Scale-DAO (FSDS-DAO). The FSDS-DAO 15-item questionnaire is designed to assess and quantify the change in personal distress associated with […]-DAO total score improvement (mean change of -11.1 vs. -6.8, p=0.036).

[2] = Example 1: plasma pharmacokinetics after in-clinic subcutaneous dose; type: in vivo, human
Experimental: Ambulatory blood pressure monitoring was conducted following both placebo and randomized treatment group in-clinic administrations. Three periods of ambulatory blood pressure monitoring were included, the first period was from before to 24 hours after a single, in-clinic dose of placebo (to establish a baseline); the second and third periods occurred from before to 24 hours after each of 2 single, in-clinic doses of double-blind treatment, administered within 14 days of each other. Blood samples for pharmacokinetic analysis were collected before and at 0.5, 1.0, and 2.0 hours after each in-clinic bremelanotide single-dose treatment (double-blind only), to permit analysis of concentration-response relationships.
Mean pharmacokinetic parameters were determined by bremelanotide dose and visit, including Cmax determinations (the highest ng/mL concentration at either 0.5 or 1 hour post administration) and AUC determinations at two hours and, for a subset of subjects in each group, at four hours.
The Cmax for the mean curve was calculated by averaging the concentrations at each time point (0.5, 1, 2 and 4 hours), and this is shown in FIG. 3.

[3] = tested on: men diagnosed with erectile dysfunction; settings: subcutaneous injection of 4 or 6 mg; cited from earlier work
[4] = pooled 1.25 mg and 1.75 mg doses, baseline to end of study

Structure (SMILES): CCCC[C@H](NC(C)=O)C(=O)N[C@H]1CC(=O)NCCCC[C@@H](C(=O)O)NC(=O)[C@H](Cc2c[nH]c3ccccc23)NC(=O)[C@H](CCCNC(=N)N)NC(=O)[C@@H](Cc2ccccc2)NC(=O)[C@H](Cc2c[nH]cn2)NC1=O [bremelanotide, Ac-Nle-cyclo(-Asp-His-D-Phe-Arg-Trp-Lys)-OH]
- efficacy on all key endpoints in HSDD-only and mixed HSDD/FSAD subgroups ([1]; 1.25 mg, 1.75 mg, and/or 1.25/1.75 mg pooled, exploratory analyses): statistically significant efficacy or a clinically significant trend versus placebo
- Satisfying Sexual Events (SSEs), mean at baseline ([1]; pooled 1.25 mg and 1.75 mg doses): 1.6
- FSDS-DAO total score improvement, mean change [1, 4]: −11.1
- FSFI total score improvement, mean change [1, 4]: 3.55
- increase in SSEs [1, 4]: 50%
- Satisfying Sexual Events (SSEs), mean at end of study ([1]; pooled 1.25 mg and 1.75 mg doses, last four weeks of treatment): 2.4
- most optimal dose for efficacy ([1]; subcutaneous): 1.75 mg
- women with end-of-study FSFI and FSDS-DAO total score levels above 26.5 and 18 ([1]; versus placebo, exploratory analysis): higher percentage of women
- AUC(0-2 h) % CV ([2]; 0.75 mg SC, Visit 5): 24%
- AUC(0-2 h) Max ([2]; 0.75 mg SC, Visit 5): 85 ng·h/mL
- AUC(0-2 h) Mean ([2]; 0.75 mg SC, Visit 5): 53 ng·h/mL
- AUC(0-2 h) Median ([2]; 0.75 mg SC, Visit 5): 52 ng·h/mL
- AUC(0-2 h) Min ([2]; 0.75 mg SC, Visit 5): 25 ng·h/mL
- AUC(0-4 h) % CV ([2]; 0.75 mg SC, Visit 5): 23%
- AUC(0-4 h) Max ([2]; 0.75 mg SC, Visit 5): 126 ng·h/mL
- AUC(0-4 h) Mean ([2]; 0.75 mg SC, Visit 5): 84 ng·h/mL
- AUC(0-4 h) Median ([2]; 0.75 mg SC, Visit 5): 80 ng·h/mL
- AUC(0-4 h) Min ([2]; 0.75 mg SC, Visit 5): 50 ng·h/mL
- Cmax % CV ([2]; 0.75 mg SC, Visit 5): 27%
- Cmax Max ([2]; 0.75 mg SC, Visit 5): 60 ng/mL
- Cmax Median ([2]; 0.75 mg SC, Visit 5): 36 ng/mL
- Cmax Min ([2]; 0.75 mg SC, Visit 5): 17 ng/mL
- AUC(0-2 h) % CV ([2]; 0.75 mg SC, Visit 7): 24%
- AUC(0-2 h) Max ([2]; 0.75 mg SC, Visit 7): 92 ng·h/mL
- AUC(0-2 h) Mean ([2]; 0.75 mg SC, Visit 7): 53 ng·h/mL
- AUC(0-2 h) Median ([2]; 0.75 mg SC, Visit 7): 52 ng·h/mL
- AUC(0-2 h) Min ([2]; 0.75 mg SC, Visit 7): 26 ng·h/mL
- AUC(0-4 h) % CV ([2]; 0.75 mg SC, Visit 7): 20%
- AUC(0-4 h) Max ([2]; 0.75 mg SC, Visit 7): 120 ng·h/mL
- AUC(0-4 h) Mean ([2]; 0.75 mg SC, Visit 7): 80 ng·h/mL
- AUC(0-4 h) Median ([2]; 0.75 mg SC, Visit 7): 79 ng·h/mL
- AUC(0-4 h) Min ([2]; 0.75 mg SC, Visit 7): 51 ng·h/mL
- Cmax % CV ([2]; 0.75 mg SC, Visit 7): 27%
- Cmax Max ([2]; 0.75 mg SC, Visit 7): 78 ng/mL
- Cmax Mean ([2]; 0.75 mg SC, Visit 7): 38 ng/mL
- Cmax Min ([2]; 0.75 mg SC, Visit 7): 20 ng/mL
- AUC(0-2 h) % CV ([2]; 1.25 mg SC, Visit 5): 25%
- AUC(0-2 h) Max ([2]; 1.25 mg SC, Visit 5): 148 ng·h/mL
- AUC(0-2 h) Mean ([2]; 1.25 mg SC, Visit 5): 86 ng·h/mL
- AUC(0-2 h) Median ([2]; 1.25 mg SC, Visit 5): 81 ng·h/mL
- AUC(0-2 h) Min ([2]; 1.25 mg SC, Visit 5): 42 ng·h/mL
- AUC(0-4 h) % CV ([2]; 1.25 mg SC, Visit 5): 20%
- AUC(0-4 h) Max ([2]; 1.25 mg SC, Visit 5): 187 ng·h/mL
- AUC(0-4 h) Median ([2]; 1.25 mg SC, Visit 5): 136 ng·h/mL
- AUC(0-4 h) Min ([2]; 1.25 mg SC, Visit 5): 86 ng·h/mL
- Cmax % CV ([2]; 1.25 mg SC, Visit 5): 31%
- Cmax Max ([2]; 1.25 mg SC, Visit 5): 126 ng/mL
- Cmax Mean ([2]; 1.25 mg SC, Visit 5): 60 ng/mL
- Cmax Min ([2]; 1.25 mg SC, Visit 5): 29 ng/mL
- AUC(0-2 h) % CV ([2]; 1.25 mg SC, Visit 7): 25%
- AUC(0-2 h) Max ([2]; 1.25 mg SC, Visit 7): 144 ng·h/mL
- AUC(0-2 h) Mean ([2]; 1.25 mg SC, Visit 7): 84 ng·h/mL
- AUC(0-2 h) Median ([2]; 1.25 mg SC, Visit 7): 84 ng·h/mL
- AUC(0-2 h) Min ([2]; 1.25 mg SC, Visit 7): 24 ng·h/mL
- AUC(0-4 h) % CV ([2]; 1.25 mg SC, Visit 7): 25%
- AUC(0-4 h) Max ([2]; 1.25 mg SC, Visit 7): 199 ng·h/mL
- AUC(0-4 h) Mean ([2]; 1.25 mg SC, Visit 7): 142 ng·h/mL
- AUC(0-4 h) Median ([2]; 1.25 mg SC, Visit 7): 144 ng·h/mL
- AUC(0-4 h) Min ([2]; 1.25 mg SC, Visit 7): 39 ng·h/mL
- Cmax % CV ([2]; 1.25 mg SC, Visit 7): 33%
- Cmax Max ([2]; 1.25 mg SC, Visit 7): 150 ng/mL
- Cmax Mean ([2]; 1.25 mg SC, Visit 7): 60 ng/mL
- Cmax Median ([2]; 1.25 mg SC, Visit 7): 60 ng/mL
- Cmax Min ([2]; 1.25 mg SC, Visit 7): 18 ng/mL
- AUC(0-2 h) % CV ([2]; 1.75 mg SC, Visit 5): 23%
- AUC(0-2 h) Max ([2]; 1.75 mg SC, Visit 5): 171 ng·h/mL
- AUC(0-2 h) Min ([2]; 1.75 mg SC, Visit 5): 17 ng·h/mL
- AUC(0-4 h) % CV ([2]; 1.75 mg SC, Visit 5): 29%
- AUC(0-4 h) Max ([2]; 1.75 mg SC, Visit 5): 289 ng·h/mL
- AUC(0-4 h) Median ([2]; 1.75 mg SC, Visit 5): 179 ng·h/mL
- AUC(0-4 h) Min ([2]; 1.75 mg SC, Visit 5): 25 ng·h/mL
- Cmax % CV ([2]; 1.75 mg SC, Visit 5): 25%
- Cmax Mean ([2]; 1.75 mg SC, Visit 5): 77 ng/mL
- Cmax Median ([2]; 1.75 mg SC, Visit 5): 78 ng/mL
- AUC(0-2 h) % CV ([2]; 1.75 mg SC, Visit 7): 25%
- AUC(0-2 h) Max ([2]; 1.75 mg SC, Visit 7): 176 ng·h/mL
- AUC(0-2 h) Median ([2]; 1.75 mg SC, Visit 7): 111 ng·h/mL
- AUC(0-2 h) Min ([2]; 1.75 mg SC, Visit 7): 28 ng·h/mL
- AUC(0-4 h) % CV ([2]; 1.75 mg SC, Visit 7): 25%
- AUC(0-4 h) Max ([2]; 1.75 mg SC, Visit 7): 276 ng·h/mL
- AUC(0-4 h) Mean ([2]; 1.75 mg SC, Visit 7): 184 ng·h/mL
- AUC(0-4 h) Median ([2]; 1.75 mg SC, Visit 7): 180 ng·h/mL
- AUC(0-4 h) Min ([2]; 1.75 mg SC, Visit 7): 72 ng·h/mL
- Cmax % CV ([2]; 1.75 mg SC, Visit 7): 25%
- Cmax Max ([2]; 1.75 mg SC, Visit 7): 127 ng/mL
- Cmax Mean ([2]; 1.75 mg SC, Visit 7): 78 ng/mL
- Cmax Median ([2]; 1.75 mg SC, Visit 7): 77 ng/mL
- Cmax Min ([2]; 1.75 mg SC, Visit 7): 27 ng/mL
- Cmax % CV ([2]; 1.75 mg subcutaneous dose): 25%
- median Cmax ([2]; 1.75 mg subcutaneous dose): 78 ng/mL
- erectile response [3]: statistically significant erectile response compared to placebo
